Test results taken from patent US9079853B2, “Isatin compounds, compositions and methods for treatment of degenerative diseases and disorders” (MUSC FOUNDATION FOR RESEARCH DEVELOPMENT, priority 2013, dated 2015).

system: 661W or C6 cells; experiment: MTT assay, protection against calcium-ionophore A23187; assay type: cell-based; conditions: 1 μM ionophore, 24 h
Protocol: The compound 3-(4,5-Dimethylthiazol-2-yl)-2,5-diphenyltetrazolium bromide (MTT) is a tetrazolium ion that is reduced to a blue formazan dye via several families of NAD(P)H-dependent oxidoreductases. Formation of the formazan dye from MTT or other related tetrazolium dyes are commonly used as a viability assay even though, in fact, the assay is a metabolic capacity assay.
In this assay, 661W or C6 cells were maintained in DMEM supplemented with 10% FBS. 100 μL of 70,000 cells/mL cells were seeded into each well of 96 well plates using DMEM supplemented with 5% FBS. Cells were then allowed to grow to confluency for 48 hours. The compounds of the invention were added in 2 μL media and calcium-ionophore A23187 was then added in 1 μL for a final concentration of 1 μM and after 24 h, 20 μL of […] MTT were added to each well and the cells were incubated for another 4 h after which 100 μL of 1% SDS in 0.01M aqueous HCl were added to each well and the plates were incubated overnight. Absorbance was measured at […] (background correction). The 1 μM ionophore A23187 caused about 50% loss in MTT signal at 24 h. Protection was calculated as the increase in absorbance of treatment groups normalized to the vehicle control.

| Compound | loss in MTT signal |
| --- | --- |
| CNc1ccc2oc(C[C@H]3O[C@@]4(CC[C@H]3C)O[C@H]([C@H](C)C(=O)c3ccc[nH]3)[C@H](C)C[C@H]4C)nc2c1C(=O)O [Example A23187, reference compound] | about 50% |

same assay, conditions: compound 800 pM; 1 μM A23187, 24 h

| Compound | MTT, % protection |
| --- | --- |
| CCN1C(=O)C(Cc2ccc(OC)cc2O)(OC(=O)c2ccccc2)c2ccccc21 (centres unmarked) [Example 57, 1-ethyl-3-(2-hydroxy-4-methoxybenzyl)-2-oxoindolin-3-yl benzoate] | 71%, |
| COc1ccc(O)c(CC2(OC(=O)c3ccccc3)C(=O)N(CC(C)C)c3ccccc32)c1 (centres unmarked) [Example 54, 3-(2-hydroxy-5-methoxybenzyl)-1-isobutyl-2-oxoindolin-3-yl benzoate] | 85.8%, |
| Cc1ccc2c(c1)C(O)(Cc1ccccn1)C(=O)N2CCc1ccccc1 (centres unmarked) [Example 9, 3-hydroxy-5-methyl-1-phenethyl-3-(pyridin-2-ylmethyl)indolin-2-one] | 62.5%, |
| COc1cc(CC2(OC(=O)c3ccccc3)C(=O)N(CC(C)C)c3ccccc32)cc(OC)c1OC (centres unmarked) [Example 49, 1-isobutyl-2-oxo-3-(3,4,5-trimethoxybenzyl)indolin-3-yl benzoate] | 78.3%, |

same assay, conditions: compound 1 nM; 1 μM A23187, 24 h

| Compound | MTT, % protection |
| --- | --- |
| COc1cc(CC2(OC(=O)c3ccccc3)C(=O)N(CCc3ccccc3)c3ccc(Cl)cc32)cc(OC)c1OC (centres unmarked) [Example 50, 5-chloro-2-oxo-1-phenethyl-3-(3,4,5-trimethoxybenzyl)indolin-3-yl benzoate] | 79.2%, |
| CCN1C(=O)C(O)(Cc2ncccc2OC)c2cc(C)ccc21 (centres unmarked) [Example 8, 1-ethyl-3-hydroxy-3-((3-methoxypyridin-2-yl)methyl)-5-methylindolin-2-one] | 65.9%, |
| CCCN1C(=O)C(O)(Cc2ccc(OC)cn2)c2cc(Cl)ccc21 (centres unmarked) [Example 5, 5-chloro-3-hydroxy-3-((5-methoxypyridin-2-yl)methyl)-1-propylindolin-2-one] | 39.2%, |
| COc1ccc(CC2(OC(=O)c3ccccc3)C(=O)N(CCC(C)C)c3ccccc32)cc1OC (centres unmarked) [Example 45, 3-(3,4-dimethoxybenzyl)-1-isopentyl-2-oxoindolin-3-yl benzoate] | 63%, |
| CCN1C(=O)C(Cc2cc(OC)ccc2O)(OC(=O)c2ccccc2)c2cc(C)ccc21 (centres unmarked) [Example 60, 1-ethyl-3-(2-hydroxy-5-methoxybenzyl)-5-methyl-2-oxoindolin-3-yl benzoate] | 68.7%, |
| CCCN1C(=O)C(Cc2ccc(OC)c(OC)c2)(OC(=O)c2ccccc2)c2cc(C)ccc21 (centres unmarked) [Example 47, 3-(3,4-dimethoxybenzyl)-5-methyl-2-oxo-1-propylindolin-3-yl benzoate] | 21.8%, |
| CCN1C(=O)C(O)(Cc2ccccn2)c2cc(Cl)ccc21 (centres unmarked) [Example 10, 5-chloro-1-ethyl-3-hydroxy-3-(pyridin-2-ylmethyl)indolin-2-one] | 52.7%, |
| COc1ccc(CC2(OC(=O)c3ccccc3)C(=O)N(CCc3ccccc3)c3ccc(C)cc32)cc1OC (centres unmarked) [Example 44, 3-(3,4-dimethoxybenzyl)-5-methyl-2-oxo-1-phenethylindolin-3-yl benzoate] | 72%, |
| COc1cccc(CC2(OC(=O)c3ccccc3)C(=O)N(CCC(C)C)c3ccc(Cl)cc32)c1O (centres unmarked) [Example 55, 5-chloro-3-(2-hydroxy-3-methoxybenzyl)-1-isopentyl-2-oxoindolin-3-yl benzoate] | 67.4%, |

same assay, conditions: compound 100 nM; 1 μM A23187, 24 h

| Compound | MTT, % protection |
| --- | --- |
| C#Cc1cccc(C(=O)CC2(O)C(=O)N(CCC)c3ccc(Cl)cc32)n1 (centres unmarked) [Example 14, 5-chloro-3-(2-(6-ethynylpyridine-2-yl)-2-oxoethyl)-3-hydroxy-1-propylindolin-2-one] | 69.6%, |
| Cc1ccc2c(c1)C(O)(CC(=O)c1c[nH]c3ccccc13)C(=O)N2CCC(C)C (centres unmarked) [Example 15, 3-(2-(1H-indol-3-yl)-2-oxoethyl)-3-hydroxy-1-isopentyl-5-methylindolin-2-one] | 108.5%, |
| COc1cccc(C(=O)CC2(O)C(=O)N(CC(C)C)c3ccc(C)cc32)n1 (centres unmarked) [Example 29, 3-hydroxy-1-isobutyl-3-(2-(6-methoxypyridin-2-yl)-2-oxoethyl)-5-methylindolin-2-one] | 98.9%, |
| CCCN1C(=O)C(Cc2ccc(OC)cc2O)(OC(=O)c2ccccc2)c2ccccc21 (centres unmarked) [Example 52, 3-(2-hydroxy-4-methoxybenzyl)-2-oxo-1-propylindolin-3-yl benzoate] | 24%, |
| COc1cccc(C(=O)CC2(O)C(=O)N(CCN3CCCCC3)c3ccc(Cl)cc32)n1 (centres unmarked) [Example 18, 5-chloro-3-hydroxy-3-(2-(6-methoxypyridin-2-yl)-2-oxoethyl)-1-(2-(piperidin-1-yl)ethyl)indolin-2-one] | 68.8%, |
| CCN1C(=O)C(Cc2cc(OC)c(OC)c(OC)c2)(OC(=O)c2ccccc2)c2cc(C)ccc21 (centres unmarked) [Example 33, 1-ethyl-5-methyl-2-oxo-3-(3,4,5-trimethoxybenzyl)indolin-3-yl benzoate] | 50%, |
| CCN1C(=O)C(O)(CC(=O)c2ccccn2)c2cc(Cl)ccc21 (centres unmarked) [Example 19, 5-chloro-1-ethyl-3-hydroxy-3-(2-oxo-2-(pyridin-2-yl)ethyl)indolin-2-one] | 81.8%, |
| CC(C)CN1C(=O)C(O)(CC(=O)c2ccccn2)c2ccccc21 (centres unmarked) [Example 16, 3-hydroxy-1-isobutyl-3-(2-oxo-2-(pyridin-2-yl)ethyl)indolin-2-one] | 78.7%, |
| COc1cc(CC2(OC(=O)c3ccccc3)C(=O)N(CC(C)C)c3ccc(C)cc32)cc(OC)c1OC (centres unmarked) [Example 36, 1-isobutyl-5-methyl-2-oxo-3-(3,4,5-trimethoxybenzyl)indolin-3-yl benzoate] | 86.8%, |
| CCCN1C(=O)C(O)(Cc2cn(C(=O)c3ccccc3)c3ccccc23)c2cc(C)ccc21 (centres unmarked) [Example 64, 3-((1-benzoyl-1H-indol-3-yl)methyl)-3-hydroxy-5-methyl-1-propylindolin-2-one] | 51.5%, |
| CC(C)CN1C(=O)C(O)(CC(=O)c2ccccn2)c2cc(Cl)ccc21 (centres unmarked) [Example 32, 5-chloro-3-hydroxy-1-isobutyl-3-(2-oxo-2-(pyridin-2-yl)ethyl)indolin-2-one] | 102%, |
| CC(C)CCN1C(=O)C(O)(CC(=O)c2c[nH]c3ccccc23)c2ccccc21 (centres unmarked) [Example 21, 3-(2-(1H-indol-3-yl)-2-oxoethyl)-3-hydroxy-1-isopentylindolin-2-one] | 82.9%, |
| CC(C)CN1C(=O)C(O)(CC(=O)c2c[nH]c3ccccc23)c2ccccc21 (centres unmarked) [Example 20, 3-(2-(1H-indol-3-yl)-2-oxoethyl)-3-hydroxy-1-isobutylindolin-2-one] | 59.5%, |
| COc1cccc(C(=O)CC2(O)C(=O)N(CC(C)C)c3ccc(Cl)cc32)n1 (centres unmarked) [Example 17, 5-chloro-3-hydroxy-1-isobutyl-3-(2-(6-methoxypyridin-2-yl)-2-oxoethyl)indolin-2-one] | 111%, |

same assay, conditions: compound 1 μM; 1 μM A23187, 24 h

| Compound | MTT, % protection |
| --- | --- |
| COc1ccc(CC2(OC(=O)c3ccccc3)C(=O)N(CCC(C)C)c3ccc(C)cc32)cc1OC (centres unmarked) [Example 46, 3-(3,4-dimethoxybenzyl)-1-isopentyl-5-methyl-2-oxoindolin-3-yl benzoate] | 82%, |
| COc1ccc(CC2(O)C(=O)N(CCc3ccccc3)c3ccc(C)cc32)nc1 (centres unmarked) [Example 11, 3-hydroxy-3-((5-methoxypyridin-2-yl)methyl)-5-methyl-1-phenethylindolin-2-one] | 35.7%, |
| CCN1C(=O)C(O)(Cc2ncccc2OC)c2cc(Cl)ccc21 (centres unmarked) [Example 7, 5-chloro-1-ethyl-3-hydroxy-3-((3-methoxypyridin-2-yl)methyl)indolin-2-one] | 43.8%, |
| Cc1ccc2c(c1)C(O)(CC(=O)c1c[nH]c3ccccc13)C(=O)N2CCCN=[N+]=[N-] (centres unmarked) [Example 27, 3-(2-(1H-indol-3-yl)-2-oxoethyl)-1-(3-azidopropyl)-3-hydroxy-5-methylindolin-2-one] | 66%, |
| Cc1ccc2c(c1)C(O)(Cc1ncccc1Br)C(=O)N2CCC(C)C (centres unmarked) [Example 1, 3-((3-bromopyridin-2-yl)methyl)-3-hydroxy-1-isopentyl-5-methylindolin-2-one] | 12%, |

system: 661W or C6 cells; experiment: XF FCCP-uncoupled oxygen consumption rate assay (IBMX challenge); assay type: cell-based; conditions: IBMX treatment alone, 600 μM, 24 h;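 for XF FCCP OCR (% Ctrl): values normalized to the vehicle control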
Protocol: The XF FCCP-uncoupled oxygen consumption rate assay assesses mitochondrial capacity by measuring cellular respiration. It was shown that the maximum FCCP-uncoupled oxygen consumption rate (OCR) was a good estimate of maximal mitochondrial capacity (Beeson 2010) and that IBMX treatment of 661W or C6 cells for 24 h caused a loss in maximal uncoupled OCR (Perron 2013). Thus, cells were pretreated with the exemplified compounds for 1 h, added 600 μM IBMX and then measured the uncoupled rate after 24 h. In brief, the OCR measurements were performed using a Seahorse Bioscience XF instrument (Seahorse Bioscience, Billerica, Md.), as previously published (Perron 2013). O2 leakage through the plastic sides and bottom of the plate was accounted for using the AKOS algorithm in the XF software package. Cells were plated on 96- or 24-well custom plates designed for use in the XF and grown to confluency in DMEM+5% FBS (48 h). The medium was then replaced with DMEM+1% FBS for 24 h, along with any treatments.

| Compound | decrease in the uncoupled rate (OCR) [%] |
| --- | --- |
| CC(C)Cn1c(=O)n(C)c(=O)c2[nH]cnc21 [IBMX, reference compound] | ~50 |

same assay, conditions: compound 1 nM; 1 h pretreatment, 600 μM IBMX, 24 h; read-out: XF FCCP OCR (% Ctrl)

| Compound | activity at 0.001 µM [%] |
| --- | --- |
| COc1cc(CC2(OC(=O)c3ccccc3)C(=O)N(CCc3ccccc3)c3ccc(Cl)cc32)cc(OC)c1OC (centres unmarked) [Example 50, 5-chloro-2-oxo-1-phenethyl-3-(3,4,5-trimethoxybenzyl)indolin-3-yl benzoate] | 65 |
